{"source": "patent US7910305B2", "about": "“Methods for screening for compounds that modulate insulin promoter activity” (The Burnham Institute for Medical Research, priority 2005, dated 2011)", "key": {"[1]": {"test_system": "human insulin gene (hINS) promoter-eGFP reporter in MIN6 mouse insulinoma cells", "assay": "insulin promoter-destabilized eGFP reporter fluorescence in engineered MIN6 cells", "format": "cell-based", "conditions": "384-well plates, three-fold titration series, imaged 48 hours after compound addition", "description": "We have developed a screen for small molecule compounds that modulate insulin promoter activity. Identifying these compounds and eventually their targets should provide insights into the signaling pathways that control insulin expression. The assay is based upon a mouse insulinoma, MIN6, that normally expresses insulin mRNA. This cell was engineered to stably contain two cassettes that use a fluorescent reporter protein to monitor insulin promoter activity and a housekeeping gene activity. The primary assay is to detect compounds that alter expression of an insulin promoter-destabilized eGFP reporter cassette in mouse insulinoma (MIN6) cells relative to that of a housekeeping gene, heat shock protein 68, the promoter of which is used in a second cassette to direct expression of destabilized dsRED2. […]\nEngineering of MIN6 for Image-Based, High Throughput Screening. […] Viral supernatants harvested at 24 to 72 hours were 0.45 μm filtered and concentrated 100- to 200-fold by ultrafiltration using Centricon Plus-80 units (Millipore, Bedford, Mass., USA), yielding titers of approximately 10^9 transducing units (TU) per milliliter 5, determined by transduction of 293T cells with serial dilutions of the pRRL.SIN-18.cPPT.hPGK-EGFP.WPRE viral supernatant and FACS analysis to determine the percentage of EGFP-expressing cells. […]"}, "myosin heavy chain gene": {"test_system": "myosin heavy chain gene", "assay": "RT-PCR for myosin heavy chain gene in T6PN/E47MER cells", "format": "cell-based, human"}, "insulin mRNA": {"test_system": "insulin mRNA", "assay": "RT-PCR for endogenous insulin mRNA in T6PN/E47MER cells", "format": "cell-based, human", "description": "(A) Insulin mRNA is barely detectable by non-quantitative RT-PCR in the absence of tamoxifen in two biological replicates of T6PN/E47^MER cells.\nCells were exposed to 5 micromolar compound and also had 0.5 micromolar tamoxifen. […] […] Both GFP and insulin mRNA levels are normalized for GAPDH mRNA to rule out nonspecific effects of the compounds on transcription.\n(§1) To increase the level of insulin expression, TRM-6 cells expressing PDX-1 and NeuroD1 (T6PN cells) (Follenzi et al., Nature Genet. 25:217-222, 2000) were infected with an E47^MER retroviral vector and selected by FACS. E47^MER consists of the class I bHLH factor E47 which is a potent insulin transactivator fused to a mutated estrogen receptor that renders it functional only in the presence of tamoxifen. […] To determine whether the effects of E47 were limited to insulin expression or had more general effects on beta-cell differentiation, a panel of other beta-cell genes was examined. […] Thus, T6PN/E47^MER cells express a substantial number of important beta-cell genes, making them an appropriate target for the insulin promoter screens described herein.\nSecond Confirmatory Assay. Compounds that passed the primary confirmatory assay were passed on for further testing in a secondary confirmatory assay. This consisted of RT-PCR of GFP and endogenous insulin mRNA (FIG. 7). Both GFP and endogenous insulin RT-PCR assays are performed because of the possibility that a compound may affect the 1.4 kb insulin promoter transgene but not the endogenous insulin promoter, which may be under more complex control."}, "[2]": {"test_system": "human insulin promoter-eGFP reporter in T6PN/E47MER cells", "assay": "insulin promoter-eGFP reporter fluorescence in T6PN/E47MER cells", "format": "cell-based", "conditions": "T6PN/E47MER cells infected with insulin promoter-eGFP lentiviral vector", "description": "as §1\nAssay Protocol. The following is a detailed assay protocol for the primary assay, i.e., first assay performed in a testing scheme to identify biologically active chemical entities in a screening mode: […]"}}, "note": "Peptide text beside a SMILES is read from it. * marks the point of attachment. Cbz = O=C(OCc1ccccc1)*", "data": [{"smiles": "CC(C)C[C@@H](C=O)NC(=O)[C@H](CC(C)C)NC(=O)[C@H](CC(C)C)NC(=O)OCc1ccccc1", "note": "[MG132] (Cbz-Leu-Leu-Leu-aldehyde)", "values": [{"measurement": "eGFP fluorescence", "setting": "[1]", "value": "dose-dependent increase in eGFP fluorescence"}]}, {"smiles": "C[C@@H]1C[C@@H]([C@H](O)CC2CC(=O)NC(=O)C2)C(=O)[C@@H](C)C1", "note": "[cyclohexamide]", "values": [{"measurement": "eGFP fluorescence", "setting": "[1]", "value": "decrease in fluorescence intensity"}]}, {"smiles": "CC/C(=C(\\c1ccccc1)c1ccc(OCCN(C)C)cc1)c1ccccc1", "note": "[tamoxifen]", "values": [{"measurement": "myosin heavy chain gene induction", "setting": "myosin heavy chain gene", "value": "not induced"}, {"measurement": "insulin mRNA (RT-PCR), positive control", "setting": "insulin mRNA; 4 micromolar tamoxifen control", "value": "maximum induction of insulin mRNA"}, {"measurement": "insulin mRNA by non-quantitative RT-PCR", "setting": "insulin mRNA; T6PN/E47MER cells with versus without tamoxifen, two biological replicates", "value": "strongly induced"}, {"measurement": "insulin mRNA by quantitative real-time RT-PCR", "setting": "insulin mRNA; T6PN/E47MER cells, E47 activity induced by tamoxifen, two biological replicates", "value": "dramatic upregulation of insulin mRNA"}, {"measurement": "induction of insulin gene expression", "setting": "insulin mRNA; induction of E47 activity (E47MER functional only with tamoxifen) in T6PN cells", "value": 100, "unit": "fold"}, {"measurement": "eGFP induction", "setting": "[2]", "value": "High levels of eGFP"}]}]}
